Data set [1] concerns normal mice and SART stress mice. The experiment in a line: Analgesic effect, tail pressure method (Randall-Selitto's device). The conditions noted are these: Mus musculus; for change in vivo at 200 mg/kg: intraperitoneal 200 mg/kg. Format: in vivo, mice (ddY-strain male). The procedure:
5.1 Tail pressure method:
Randall-Selitto's device for determining analgesic effect by pressure stimulation was used. […]. The compounds of the present invention or other comparative drugs were given thereto and analgesic effect was determined. The effect was judged by measuring pressure applied 60 minutes after the intraperitoneal administration of the compounds of the present invention. The pressure thus measured was divided by a pressure before the administration. The value thus obtained was compared with that of a control group (to which 10 ml./Kg of 0.5% sodium salt of carboxymethylcellulose or 0.5% Tween 80 was given). When the compounds of the present invention were given perorally and other comparative drugs were given, an average of the pressure at 30, 60, 90 and 120 minutes after the administration was employed for evaluating the effect.

Data set [2] has the same test system. The experiment in a line: Analgesic effect, D'Amour-Smith method. Type of data set: in vivo, mice (ddY-strain male). The conditions noted are these: Mus musculus; for responders at 100 mg/kg: po, peroral 100 mg/kg; for responders at 200 mg/kg: ip, intraperitoneal 200 mg/kg. The method, then:
5.3. D'Amour-Smith method:
Groups each comprising 10 ddY-strain male normal mice and SART stress mice to which SART stress had been applied for 4 days were used. The root of the tail of the mouse to which black ink was applied was irradiated with infrared rays for up to 15 seconds. Time required till escape response was observed was measured. The effect was shown by the ratio of the mice in which an average value of the response time at 30, 60, 90 and 120 minutes after the administration of the compounds of the present invention or other comparative drugs was prolonged to at least 2 times as long as the time before the administration.

Data set [3] in a line: Acute toxicity test (LD50, Litchfield-Wilcoxon), mice. The conditions noted are these: mouse, in vivo, ip, intraperitoneal. The procedure: (§1) Toxicity tests were carried out by intraperitoneal administration of the compound of the present invention to groups each comprising 10 ICR-strain mice and SD-strain rats. LD50 was calculated by the Litchfield-Wilcoxon method based on the number of death 72 hours after the administration.

The nature of data set [4]: Acute toxicity test (LD50, Litchfield-Wilcoxon), rats. The following applies: rat, in vivo, ip, intraperitoneal. The procedure: as §1
Data set [5] relates to ddY-strain male mice. The experiment in a line: Effect of prolongation of sleeping time (hexobarbital). Format: in vivo. The following applies: for change in vivo at 100 mg/kg / change in vivo at 300 mg/kg: Mus musculus, ip; for change in vivo at 100 mg/kg: 100 mg/kg intraperitoneal; for change in vivo at 300 mg/kg: 300 mg/kg intraperitoneal; for Effect of prolongation of sleeping time: 50 mg/kg intraperitoneal. The method, then: 7. Effect of prolongation of sleeping time:
Groups of mice each comprising 10 ddY-strain male mice were used. Sodium salt of hexobarbital was given intraperitoneally. Thereafter, the period of time in which righting reflex disappeared was measured. The effect was evaluated on the basis of prolongation of time of disappearance of righting reflex by the intraperitoneal administration of the compounds of the present invention as compared with control mice.

Setting [6] is: ip, 1 h, SART stress mice, intraperitoneal 100 mg/kg, 60 minutes.
The mark [7] stands for this setting: ip, 1 h, normal mice, intraperitoneal 100 mg/kg, 60 minutes.

On to `Cc1c(N(C)C)c(=O)n(-c2ccccc2)n1C` [Aminopyrine, reference compound], for which the change in vivo at 100 mg/kg in data set [1] (po, SART stress mice, peroral 100 mg/kg, average of 30, 60, 90 and 120 minutes) came out at 58.9%; in data set [1] (po, normal mice, peroral 100 mg/kg, average of 30, 60, 90 and 120 minutes) it was 43.5%. Further, the responders at 100 mg/kg was found to be 50% in data set [2] (SART stress mice) and 10% in data set [2] (normal mice).
For `O=C1NC(=O)C(c2ccccc2)(c2ccccc2O)N1` (stereo not shown) [Compound 6, 5-(2-Hydroxyphenyl)-5-phenylhydantoin], the LD50 at 72 h in data set [3] (female), in data set [3] (male), in data set [4] (female) and in data set [4] (male) was greater than 5000 mg/kg in each case. The change in vivo at 100 mg/kg in data set [1] (setting [6]) was determined as 62.7%; in data set [1] (setting [7]) it was 38.1%; in data set [5], 30.6%. The change in vivo at 300 mg/kg in data set [5] came to 33.7%.
On to `O=C1NC(=O)C(c2cccc(O)c2)(c2cccc(O)c2)N1` [Compound 8, 5,5-Bis(3-hydroxyphenyl)hydantoin], for which the LD50 – broadly, the dose expected to kill half of the subjects tested – at 72 h in data set [3] (female) is 1270 mg/kg; in data set [3] (male), 1350 mg/kg; in data set [4] (female), 1660 mg/kg; in data set [4] (male) it was 1800 mg/kg. The change in vivo at 100 mg/kg in data set [1] (setting [6]) came out at 54.7%; in data set [1] (setting [7]), 22.9%; in data set [5] it was 16.9%.
With `CCCOc1ccccc1C1(c2ccccc2OCCC)NC(=O)NC1=O` [Compound 9, 5,5-Bis(2-propoxyphenyl)hydantoin], the LD50 at 72 h in data set [3] (female), in data set [3] (male), in data set [4] (female) and in data set [4] (male) was greater than 5000 mg/kg throughout. The change in vivo at 200 mg/kg in data set [1] (ip, 1 h, SART stress mice, 60 minutes) was determined as 74.4%; in data set [1] (ip, 1 h, normal mice, 60 minutes) it was 21.3%. For the same molecule, in data set [5], the “Effect of prolongation of sleeping time” value is listed as 10.5%. In data set [5], this molecule returned a change in vivo at 300 mg/kg of 39%.
For `CCCOc1ccc(C2(c3ccc(OCCC)cc3)NC(=O)NC2=O)cc1` [Compound 10, 5,5-Bis(4-propoxyphenyl)hydantoin], the LD50 at 72 h in data set [3] (female) was 3460 mg/kg; in data set [3] (male), 3600 mg/kg; in data set [4] (female) it was 3800 to 4000 mg/kg; in data set [4] (male) it was 4000 mg/kg. Besides, the “Effect of prolongation of sleeping time” value in data set [5] is listed as 17.0%.
In the case of `COc1ccc(C2(c3ccc(O)cc3)NC(=O)NC2=O)cc1` (stereo not shown) [Compound 11, 5-(4-Hydroxyphenyl)-5-(4-methoxyphenyl)hydantoin], the LD50 at 72 h in data set [3] (female) was 3000 mg/kg; in data set [3] (male), greater than 3000 mg/kg; in data set [4] (female) it was greater than 5000 mg/kg; in data set [4] (male), greater than 5000 mg/kg.
With `O=C1NC(=O)C(c2ccccc2OCc2ccccc2)(c2ccccc2OCc2ccccc2)N1` [Compound 12, 5,5-Bis(2-benzyloxyphenyl)hydantoin], the LD50 at 72 h in data set [3] (female), in data set [3] (male), in data set [4] (female) and in data set [4] (male) was greater than 5000 mg/kg throughout.
For `Cc1ccc(C2(c3ccc(C)cc3)NC(=O)NC2=O)cc1` [Compound 13, 5,5-Bis(4-methylphenyl)hydantoin], the LD50 at 72 h in data set [3] (female), in data set [3] (male), in data set [4] (female) and in data set [4] (male) was greater than 5000 mg/kg each time. The change in vivo at 300 mg/kg in data set [5] amounted to 14.1%.
Consider `COc1ccc(C2(c3ccc(OC)cc3OC)NC(=O)NC2=O)cc1` (stereo not shown) [Compound 15, 5-(2,4-Dimethoxyphenyl)-5-(4-methoxyphenyl)hydantoin], for which the LD50 at 72 h in data set [3] (female), in data set [3] (male), in data set [4] (female) and in data set [4] (male) was greater than 5000 mg/kg in each case. The change in vivo at 100 mg/kg in data set [5] came to 15.4%. For the same molecule, in data set [5], the change in vivo at 300 mg/kg is 23.9%.
In the case of `COc1ccc(C2(c3ccc(OC)c(OC)c3)NC(=O)NC2=O)cc1` (stereo not shown) [Compound 16, 5-(3,4-Dimethoxyphenyl)-5-(4-methoxyphenyl)hydantoin], the LD50 at 72 h in data set [3] (female), in data set [3] (male), in data set [4] (female) and in data set [4] (male) was greater than 5000 mg/kg each time. In addition, the change in vivo at 300 mg/kg in data set [5] amounted to 20.8%.
With `O=C1NC(=O)C(c2ccc(O)c(O)c2)(c2ccc(O)c(O)c2)N1` [Compound 17, 5,5-Bis(3,4-dihydroxyphenyl)hydantoin], the LD50 at 72 h is 1800 mg/kg in data set [3] (female), 1500 to 2000 mg/kg in data set [3] (male), 2220 mg/kg in data set [4] (female) and 2400 mg/kg in data set [4] (male).
For the molecule `COc1ccc(C2(c3ccc(OC)cc3OC)NC(=O)NC2=O)c(OC)c1` [Compound 18, 5,5-Bis(2,4-Dimethoxyphenyl)hydantoin], the LD50 at 72 h in data set [3] (female), in data set [3] (male), in data set [4] (female) and in data set [4] (male) was greater than 5000 mg/kg each time.
Take `COc1ccc(C2(c3ccc(OC)c(OC)c3)NC(=O)NC2=O)cc1OC` [Compound 19, 5,5-Bis(3,4-dimethoxyphenyl)hydantoin]: the LD50 at 72 h in data set [3] (female), in data set [3] (male), in data set [4] (female) and in data set [4] (male) was greater than 5000 mg/kg each time. In data set [5], this molecule had a change in vivo at 100 mg/kg of 10%.
`O=C1NC(=O)C(c2ccc(O)c(CO)c2)(c2ccc(O)c(CO)c2)N1` [Compound 20, 5,5-Bis(4-hydroxy-3-hydroxymethylphenyl)hydantoin]: the LD50 at 72 h in data set [3] (female) is 2980 mg/kg; in data set [3] (male) it was greater than 3000 mg/kg; in data set [4] (female), 4090 mg/kg; in data set [4] (male) it was 4310 mg/kg.
`COc1ccc(C2(c3ccc(OC)c(CO)c3)NC(=O)NC2=O)cc1CO` [Compound 21, 5,5-Bis(3-hydroxymethyl-4-methoxyphenyl)hydantoin]: the LD50 at 72 h in data set [3] (female), in data set [3] (male), in data set [4] (female) and in data set [4] (male) was greater than 5000 mg/kg in each case. The change in vivo at 100 mg/kg in data set [5] was 25.1%.
`COc1cc(C2(c3ccc(OC)c(OC)c3OC)NC(=O)NC2=O)cc(OC)c1OC` (stereo not shown) [Compound 22, 5-(2,3,4-Trimethoxyphenyl)-5-(3,4,5-trimethoxyphenyl)hydantoin]: the LD50 at 72 h in data set [3] (female), in data set [3] (male), in data set [4] (female) and in data set [4] (male) was greater than 5000 mg/kg each time. In data set [5], this molecule displayed a change in vivo at 100 mg/kg of 13.1%.
For `COc1cc(C2(c3cc(OC)c(OC)c(OC)c3)NC(=O)NC2=O)cc(OC)c1OC` [Compound 23, 5,5-Bis(3,4,5-trimethoxyphenyl)hydantoin], the LD50 at 72 h in data set [3] (female), in data set [3] (male), in data set [4] (female) and in data set [4] (male) was greater than 5000 mg/kg in each case. The change in vivo at 100 mg/kg in data set [1] (setting [6]) came to 66%; in data set [1] (setting [7]), 38.1%; in data set [5], 19.9%. In addition, the responders at 200 mg/kg in data set [2] (SART stress mice) was determined as 40%; in data set [2] (normal mice), 20%. This molecule also displayed a change in vivo at 300 mg/kg in data set [5] of 22.6%.
As to `O=C1NC(=O)C(c2ccccc2O)(c2ccccc2O)N1` [Compound 29, 5,5-Bis(2-hydroxyphenyl)hydantoin], the LD50 at 72 h was 1600 mg/kg in data set [3] (female), 1600 to 1800 mg/kg in data set [3] (male), 1900 mg/kg in data set [4] (female) and 1980 mg/kg in data set [4] (male).
`O=C1NC(=O)C(c2ccc(O)cc2)(c2ccc(O)cc2O)N1` (stereo not shown) [Compound 31, 5-(2,4-Dihydroxyphenyl)-5-(4-hydroxyphenyl)hydantoin]: the LD50 at 72 h was 1200 mg/kg in data set [3] (female), 1220 mg/kg in data set [3] (male), 1510 mg/kg in data set [4] (female) and 1540 mg/kg in data set [4] (male). For the same molecule, in data set [5], the change in vivo at 100 mg/kg was 19.1%.
`O=C1NC(=O)C(c2ccc(O)cc2O)(c2ccc(O)cc2O)N1` [Compound 34, 5,5-Bis(2,4-dihydroxyphenyl)hydantoin]: the LD50 at 72 h in data set [3] (female) was 1200 mg/kg; in data set [3] (male) it was greater than 1000 mg/kg; in data set [4] (female), 2000 to 3000 mg/kg; in data set [4] (male), 2000 to 3000 mg/kg.

The values are drawn from patent US4281009A, “Hydantoin derivatives” (Nippon Zoki Pharmaceutical Co., Ltd., priority 1978, dated 1981).
